Measurements as given in patent US20110071158A1, “NEW COMPOUNDS” (BOEHRINGER INGELHEIM INTERNATIONAL GMBH, priority 2009, published 2011).

Assays:
Type in all cases: biochemical
PTK2 enzyme [1] = biological target: T1, PTK2 enzyme (Homo sapiens, UniProt Q05397); test: PTK2 enzyme test, Assay 1 (DELFIA, poly-Glu-Tyr substrate, antibody PT60); conditions: Assay 1 (values without *); 1 h pre-incubation, 2% DMSO
T1 construct: purchased Invitrogen PV3832
In short: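 Active PTK2 (0.01 µg/well) preincubated 1 h at RT with compound (duplicates, 2% DMSO final), then reacted 1 h at RT with poly(Glu,Tyr) 4:1 plus biotinylated poly(Glu,Tyr) and an ATP mix containing 50 μM ATP. EDTA-stopped, streptavidin-captured product detected by Eu-PT60 anti-phosphotyrosine DELFIA; IC50 by variable-Hill sigmoid fit.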

[2] = biological target: T2, Xenopus laevis Aurora B/INCENP complex (Xenopus laevis, UniProt Q6DE08); test: Aurora-B kinase assay (radioactive enzyme inhibition)
T2 construct: equipped at the N-terminal position with a GST tag (amino acids 60-361); GST (N, cleaved yes); made in house; host or cells: E. coli BL21 (DE3)
Description: A radioactive enzyme inhibition assay was developed using E. coli-expressed recombinant Xenopus laevis Aurora B wild-type protein equipped at the N-terminal position with a GST tag (amino acids 60-361) in a complex with Xenopus laevis INCENP (amino acids 790-847), which is obtained from bacteria and purified. In equivalent manner a Xenopus laevis Aurora B mutant (G96V) in a complex with Xenopus laevis INCENP^790-847 may also be used.
The coding sequence for Aurora-B^60-361 from Xenopus laevis is cloned into a modified version of pGEX-6T (Amersham Biotech) via BamHI and SalI cutting sites. The vector contains two cloning cassettes which are separated by a ribosomal binding site, allowing bi-cistronic expression. In this configuration Xenopus laevis Aurora B is expressed by the first cassette, and the Xenopus laevis INCENP^790-847 is expressed by the second cassette. The resulting vector is pAUB-IN^847.
First of all the E. coli strain BL21 (DE3) is co-transformed with pUBS520 helper plasmid and pAUB-IN^847, after which protein expression is induced using 0.3 mM IPTG at an OD600 of 0.45-0.7. The expression is then continued for approx. 12-16 h at 23-25° C. with agitation.
The bacteria are then removed by centrifuging and the pellet is lysed in lysis buffer (50 mM Tris/Cl pH 7.6, 300 mM NaCl, 1 mM DTT, 1 mM EDTA, 5% glycerol, Roche Complete Protease Inhibitor tablets) using ultrasound, using 20-30 mL lysis buffer per litre of E. coli culture. The lysed material is freed from debris by centrifugation (12000 rpm, 45-60 min, JA20 rotor). The supernatant is incubated with […] of equilibrated GST Sepharose Fast Flow (Amersham Biosciences) per litre of E. coli culture for 4-5 h at 4° C. Then the column material is washed with 30 volumes of lysis buffer and then equilibrated with 30 volumes of cleavage buffer (50 mM Tris/Cl pH 7.6, 150 mM NaCl, 1 mM DTT, 1 mM EDTA). To cleave the GST tag from Aurora B, 10 units of Prescission Protease (Amersham Biosciences) are used per milligram of substrate and the mixture is incubated for 16 h at 4° C. The supernatant which contains the cleavage product is loaded onto a 6 mL Resource Q column (Amersham Biosciences) equilibrated with ion exchange buffer (50 mM Tris/Cl pH 7.6, 150 mM NaCl, 1 mM DTT, 1 mM EDTA). The Aurora B/INCENP complex is caught as it flows through, then concentrated and loaded onto a Superdex 200 size exclusion chromatography (SEC) column equilibrated with SEC buffer (10 mM Tris/Cl pH 7.6, 150 mM NaCl, 1 mM DTT, 1 mM EDTA). Fractions which contain the AuroraB/INCENP complex are collected and concentrated using Vivaspin concentrators (molecular weight exclusion 3000-5000 Da) to a final concentration of 12 mg/mL. Aliquots (e.g. 240 ng/μL) for kinase assays are transferred from this stock solution into freezing buffer (50 mM Tris/Cl pH 8.0, 150 mM NaCl, 0.1 mM EDTA, 0.03% Brij-35, 10% glycerol, 1 mM DTT) and stored at −80° C.
Test substances are placed in a polypropylene dish (96 wells, Greiner #655 201), in order to cover a concentration frame of 10 μM-0.0001 μM. The final concentration of DMSO in the assay is 5%. 30 μL of protein mix (50 mM Tris/Cl pH 7.5, 25 mM MgCl2, 25 mM NaCl, 167 μM ATP, 10 ng Xenopus laevis Aurora B/INCENP complex in freezing buffer) are pipetted into the 10 μl of test substance provided in 25% DMSO and this is incubated for 15 min at RT. Then 10 μL of peptide mix (100 mM Tris/Cl pH 7.5, 50 mM MgCl2, 50 mM NaCl, 5 μM NaF, 5 μM DTT, 1 μCi gamma-P33-ATP [Amersham], 50 μM substrate peptide [biotin-EPLERRLSLVPDS or multimers thereof, or biotin-EPLERRLSLVPKM or multimers thereof, or biotin-[…]]) are added. The reaction is incubated for 75 min (ambient temperature) and stopped by the addition of 180 μL of 6.4% trichloroacetic acid and incubated for 20 min on ice. […]

PTK2 enzyme [3] = biological target: T1, PTK2 enzyme; test: PTK2 enzyme test, Assay 2 (DELFIA, poly-Glu-Tyr substrate, antibody PT66); conditions: Assay 2 (values marked *); 1 h pre-incubation, 0.5% DMSO
Description: This test uses active PTK2 enzyme (Invitrogen Code PV3832) and poly-Glu-Tyr (4:1, Sigma P-0275) as the kinase substrate. The kinase activity is detected by means of the phosphorylation of the substrate in a DELFIA™ assay. The phosphorylated substrate is detected with the europium-labelled phosphotyrosine antibody PT66 (Perkin Elmer, No.: AD0040).
In order to determine concentration-activity curves with PTK2-inhibitors the compounds are serially diluted first of all in 10% DMSO/H2O and then in kinase dilution buffer (20 mM TRIS/HCl pH 7.5, 0.1 mM EDTA, 0.1 mM EGTA, 0.286 mM sodium orthovanadate, 10% glycerol with the addition of freshly prepared BSA (fraction V, 1 mg/mL) and DTT (1 mM)) and 10 μL of each dilution are dispensed per well in a 96-well microtitre plate (clear U-shaped base plate, Greiner No. 650101) (the inhibitors are tested in duplicates) and mixed with 10 μL/well of PTK2 kinase (0.01 μg/well). PTK2 kinase is diluted accordingly beforehand with kinase dilution buffer. The diluted PTK2 inhibitor and the PTK2 kinase are pre-incubated for 1 h at RT and shaken at 500 revolutions per min. Then 10 μL/well poly-Glu-Tyr substrate (25 μg/well poly-Glu-Tyr, 0.05 μg/well biotinylated poly-Glu-Tyr dissolved in 250 mM TRIS/HCl pH 7.5, 9 mM DTT) are added. The reaction is started by the addition of 20 μL of ATP Mix (30 mM TRIS/HCl pH 7.5, 0.02% Brij, 0.2 mM sodium orthovanadate, 10 mM magnesium acetate, 0.1 mM EGTA, 1× phosphatase inhibitor cocktail 1 (Sigma, No.: P2850), 50 μM ATP (Sigma, No.: A3377; 15 mM stock solution))—the final concentration of DMSO is 0.5%. After 1 h kinase reaction (the plates are shaken at 500 rpm), the reaction is stopped by the addition of 12 μL/well of 100 mM EDTA, pH 8, and shaken for a further 5 min at RT (500 U/min). 55 μL of the reaction mixture are transferred into a streptavidin plate (Strepta Well High Bind (transparent, 96-well) made by Roche, No.: 11989685001) and incubated for 1 h at RT (shaking at 500 rpm). Then the microtitre plate is washed five times with 200 μL/well D-PBS (Invitrogen, No. 14190). 100 μL of a solution containing DELFIA Eu-N1 Anti-Phosphotyrosine PT66 antibody (Perkin Elmer, No.: AD0040, diluted 1:9000 in DELFIA test buffer (Perkin Elmer, No.: 1244-111)) is then added and it is incubated for 1 h at RT (shaking at 500 rpm). Then the plate is washed five times with 200 μL/well DELFIA washing buffer (Perkin Elmer, No.: 1244-114), 200 μL/well strengthening solution (Perkin Elmer, No.: 1244-105) is added and the whole is incubated for 10 min at RT (shaking at 300 rpm).
The time-delayed europium fluorescence is then measured in a microtitre plate reader (Victor, Perkin Elmer). The positive control consists of wells that contain solvent (0.5% DMSO in test buffer) and display uninhibited kinase activity. Wells that contain test buffer instead of enzyme act as a control for the background kinase activity.
The IC50 values are determined from concentration-activity analyses by iterative calculation using a sigmoid curve analysis algorithm (FIFTY, based on Graph PAD Prism Version 3.03) with a variable Hill coefficient.

T1 sequence (Q05397 whole entry): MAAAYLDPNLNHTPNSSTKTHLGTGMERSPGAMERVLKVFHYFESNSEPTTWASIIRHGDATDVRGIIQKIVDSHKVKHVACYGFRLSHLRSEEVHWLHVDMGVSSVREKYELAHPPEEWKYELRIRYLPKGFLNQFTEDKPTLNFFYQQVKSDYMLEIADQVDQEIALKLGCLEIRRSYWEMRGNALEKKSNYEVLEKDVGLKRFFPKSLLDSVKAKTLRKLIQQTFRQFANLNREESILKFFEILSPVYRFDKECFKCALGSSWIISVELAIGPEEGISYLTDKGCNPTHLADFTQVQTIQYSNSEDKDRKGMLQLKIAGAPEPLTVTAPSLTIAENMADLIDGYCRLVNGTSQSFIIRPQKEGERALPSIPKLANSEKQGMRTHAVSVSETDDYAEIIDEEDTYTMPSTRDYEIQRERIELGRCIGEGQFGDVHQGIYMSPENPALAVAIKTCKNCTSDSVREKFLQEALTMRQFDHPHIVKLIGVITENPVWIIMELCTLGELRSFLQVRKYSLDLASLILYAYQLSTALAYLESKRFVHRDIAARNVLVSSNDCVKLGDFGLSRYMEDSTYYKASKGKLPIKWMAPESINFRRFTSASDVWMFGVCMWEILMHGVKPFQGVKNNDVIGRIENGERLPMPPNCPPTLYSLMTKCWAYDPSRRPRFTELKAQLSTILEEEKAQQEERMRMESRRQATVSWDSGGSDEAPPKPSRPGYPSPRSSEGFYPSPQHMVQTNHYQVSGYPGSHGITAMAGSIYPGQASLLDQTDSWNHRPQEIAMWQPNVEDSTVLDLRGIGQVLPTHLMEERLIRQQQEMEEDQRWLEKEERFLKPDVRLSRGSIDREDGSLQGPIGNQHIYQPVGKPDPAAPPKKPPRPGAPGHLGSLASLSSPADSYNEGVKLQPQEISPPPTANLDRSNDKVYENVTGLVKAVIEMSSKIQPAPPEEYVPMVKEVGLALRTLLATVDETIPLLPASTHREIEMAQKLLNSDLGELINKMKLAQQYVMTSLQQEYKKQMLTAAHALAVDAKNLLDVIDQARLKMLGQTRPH
T2 sequence (Q6DE08 60-361): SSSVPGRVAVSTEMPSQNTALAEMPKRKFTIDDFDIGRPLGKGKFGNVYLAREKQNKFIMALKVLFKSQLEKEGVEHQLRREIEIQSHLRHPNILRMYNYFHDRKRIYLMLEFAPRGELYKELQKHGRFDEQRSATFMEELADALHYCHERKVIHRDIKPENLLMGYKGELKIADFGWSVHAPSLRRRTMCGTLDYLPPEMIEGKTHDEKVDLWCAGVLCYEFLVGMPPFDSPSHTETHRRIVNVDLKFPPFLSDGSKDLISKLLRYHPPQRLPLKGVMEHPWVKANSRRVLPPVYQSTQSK
T2 sequence (O13024 790-847 partner): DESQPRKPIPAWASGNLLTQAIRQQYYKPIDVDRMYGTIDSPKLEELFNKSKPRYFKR

Structure (SMILES) | IC50 (PTK2 enzyme [1]) [nM] | IC50 [2] [nM] | IC50 (PTK2 enzyme [3]) [nM]
COc1cc(C(=O)NC2CCN(C)CC2)ccc1Nc1ncc(C(F)(F)F)c(N[C@@H]2CCCC[C@H]2N(C)S(C)(=O)=O)n1 [Example I-90, 4-{4-[(1R,2R)-2-(methanesulphonyl-methyl-amino)-cyclohexylamino]-5-trifluoromethyl-pyrimidin-2-ylamino}-3-methoxy-N-(1-methyl-piperidin-4-yl)-benzamide] | 0.8 | 280 | 
CCN([C@@H]1CCCC[C@H]1Nc1nc(Nc2ccc(C(=O)NC3CCN(C)CC3)cc2OC)ncc1C(F)(F)F)S(C)(=O)=O [Example I-91] | 1 | 264 | 
COc1cc(C(=O)NC2CCN(C)CC2)c(C)cc1Nc1ncc(C(F)(F)F)c(N[C@@H]2CCCC[C@H]2N(C)S(C)(=O)=O)n1 [Example I-93] | 0.86 | 4040 | 
COc1cc(C(=O)NC2CCN(C)CC2)ccc1Nc1ncc(C(F)(F)F)c(N[C@@H]2CCC[C@H]2N(C)S(C)(=O)=O)n1 [Example I-124, 4-{4-[(1R,2R)-2-(methanesulphonyl-methyl-amino)-cyclopentylamino]-5-trifluoromethyl-pyrimidin-2-ylamino}-3-methoxy-N-(1-methyl-piperidin-4-yl)-benzamide] | 0.81 | 241 | 
COc1cc(C(=O)NC2CCN(C)CC2)ccc1Nc1ncc(C(F)(F)F)c(N[C@@H]2CCCC[C@H]2NS(C)(=O)=O)n1 [Example I-125, 4-[4-((1R,2R)-2-methanesulphonylamino-cyclohexylamino)-5-trifluoromethyl-pyrimidin-2-ylamino]-3-methoxy-N-(1-methyl-piperidin-4-yl)-benzamide] | 0.93 | 257 | 
COc1cc(NC(C)=O)c(F)cc1Nc1ncc(C(F)(F)F)c(N[C@@H]2CCCC[C@H]2N(C)S(C)(=O)=O)n1 [Example I-159] |  |  | 0.9
COc1cc(N2CCN(C(C)(C)C)CC2)c(C)cc1Nc1ncc(Cl)c(N[C@@H]2CCCC[C@H]2N(C)S(C)(=O)=O)n1 [Example I-184] |  |  | 1
COc1cc(N2CCN(C(C)(C)C)CC2)c(Cl)cc1Nc1ncc(Cl)c(N[C@@H]2CCCC[C@H]2N(C)S(C)(=O)=O)n1 [Example I-185] |  |  | 1
COc1ccc(NC(=O)[C@@H]2CCCN2C)cc1Nc1ncc(Cl)c(N[C@@H]2CCCC[C@H]2N(C)S(C)(=O)=O)n1 [Example I-191] |  |  | 10
COc1ccc(NC(=O)C2CCN(C)CC2)cc1Nc1ncc(Cl)c(N[C@@H]2CCCC[C@H]2N(C)S(C)(=O)=O)n1 [Example I-192] |  |  | 2

Results, then the molecule that gave them:

IC50 (PTK2 enzyme [1]) [nM] | IC50 [2] [nM] | IC50 (PTK2 enzyme [3]) [nM] | Structure (SMILES)
 |  | 0.24 | COCCN1CCC(NC(=O)c2cc(OC)c(Nc3ncc(C(F)(F)F)c(N[C@@H]4CCC[C@H]4N(C)S(C)(=O)=O)n3)cc2F)CC1 [Example I-130]
 |  | 0.28 | COc1cc(C(=O)NN2CCN(C)CC2)c(F)cc1Nc1ncc(C(F)(F)F)c(N[C@@H]2CCC[C@H]2N(C)S(C)(=O)=O)n1 [Example I-136]
 |  | 0.49 | COc1cc(N2CCN(C)CC2)c(Cl)cc1Nc1ncc(C(F)(F)F)c(N[C@@H]2CCC[C@H]2N(C)S(C)(=O)=O)n1 [Example I-139]
 |  | 0.67 | COc1cc(C(=O)NC2CCN(C)CC2)ccc1Nc1ncc(C(F)(F)F)c(N[C@@H]2CC=CC[C@H]2N(C)S(C)(=O)=O)n1 [Example I-151]
 |  | 0.71 | CCc1cc(Nc2ncc(C(F)(F)F)c(N[C@@H]3CCCC[C@H]3N(C)S(C)(=O)=O)n2)c(OC)cc1N1CCN(C)CC1 [Example I-160]
 |  | 0.44 | COc1ccc(C(=O)N(C)C2CCN(C)CC2)cc1Nc1ncc(C(F)(F)F)c(N[C@@H]2CCC[C@H]2N(C)S(C)(=O)=O)n1 [Example I-176]
 |  | 0.46 | COc1ccc(C(=O)NC2CCN(C)CC2)cc1Nc1ncc(Cl)c(N[C@@H]2CCC[C@H]2N(C)S(C)(=O)=O)n1 [Example I-179]
 |  | 0.43 | COc1ccc(C(=O)NC2CCN(C)CC2)cc1Nc1ncc(C(F)(F)F)c(N[C@@H]2CCCC[C@H]2NC(C)=O)n1 [Example I-180]
 |  | 0.43 | COCCNC(=O)c1ccc(OC)c(Nc2ncc(C(F)(F)F)c(N[C@@H]3CCCC[C@H]3NS(C)(=O)=O)n2)c1 [Example I-181]
 |  | 0.72 | COc1cc(F)c(C(=O)NC2CCOCC2)cc1Nc1ncc(C(F)(F)F)c(N[C@@H]2CCCC[C@H]2NS(C)(=O)=O)n1 [Example I-193]
 |  | 0.71 | CNC(=O)c1cc(Nc2ncc(C(F)(F)F)c(N[C@@H]3CCCC[C@H]3NS(C)(=O)=O)n2)c(OC)cc1F [Example I-194]
